Results from patent publication US20030232986A1, “Inhibitors of caspases” (Vertex Pharmaceuticals Incorporated, priority 1998, published 2003).
*1 amine or outer side, *2 acyl side, *3 side chain or, on linkers, in order; H or OH if unused. Where a SMILES comes first, the peptide text is derived from it. [ ]: non-standard residue; d: D form. The star is where a group is joined. 4Abz = Nc1ccc(C(=O)O)cc1; CO = O=C([*:1])[*:2]; NHPh = c1ccc(N*)cc1

Target: T1, Caspase-1 (Homo sapiens, UniProt P29466)
T1 sequence (P29466 120-297 limits assumed): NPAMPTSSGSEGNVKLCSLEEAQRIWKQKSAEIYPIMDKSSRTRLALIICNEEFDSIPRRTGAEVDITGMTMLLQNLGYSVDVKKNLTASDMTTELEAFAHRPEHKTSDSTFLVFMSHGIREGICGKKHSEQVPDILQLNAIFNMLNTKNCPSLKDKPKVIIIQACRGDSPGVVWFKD
T1 sequence (P29466 317-404 limits assumed): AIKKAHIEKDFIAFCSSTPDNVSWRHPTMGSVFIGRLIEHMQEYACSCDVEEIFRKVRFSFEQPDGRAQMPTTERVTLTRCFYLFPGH
Assay: Caspase-1 enzyme inhibition (Ki)
Assay type: biochemical
Details: not given
Method: Ki values for test compounds with the various caspases were obtained by the method of Margolin et al. (J. Biol. Chem., 272 pp. 7223-7228 (1997)). Assays were performed in 10 mM Tris (Sigma Corp, St Louis Mo.) pH 7.5, 1 mM Dithiothreitol (DTT, Research Organic INC, Cleveland, Ohio) and 0.1% CHAPS (Pierce, Rockford Ill.) at 37° C. For caspase-3, a solution of 8% glycerol was added to the assay buffer to improve enzyme stability. A 65 μL aliquot of the assay buffer and 5 μL aliquot of the appropriate dilutions of inhibitor in DMSO where pipetted into a 96 well plate, treated with 10 μL of caspase, then diluted in assay buffer (0.5-40 nM active protein by active site titration). A control containing DMSO but no compound was included for each determination. The plates were then incubated for 15 minutes at 37° C., before addition of the appropriate substrate (20 μL, final concentration 1-4×KM, final assay volume 100 μL) to initiate the reaction. Reaction rates were measured at 37° C. either by following the time dependant increase in absorbance at 405 nm (for the pNA substrates) or in fluorescence (Ex 390, Em 460) (for the AMC substrates). The rates obtained were plotted against inhibitor concentration and the data fit to the Morrison tight-binding equation for competitive inhibitors (Morrison, J. F., Biochem. Biophys. Acta, 185 pp. 269-286 (1969)). The substrates used for the individual assays were as follows:
Caspase-1 Suc-YVAD-pNA (Bachem, King of Prussia, Pa.) (final concentration in the assay 80 μM),

| Ki [µM] | Structure (SMILES) |
| --- | --- |
| 0.01 to 1 | Cc1onc(-c2c(F)cccc2Cl)c1C(=O)N[C@H](C(=O)N1CCC[C@H]1C(=O)N[C@H](C=O)CC(=O)O)C(C)C [Example 5ae] |
| 0.01 to 1 | CC(=O)N[C@H](Cc1c[nH]c2ccccc12)C(=O)N[C@H](C(=O)N1CCC[C@H]1C(=O)N[C@H](C=O)CC(=O)O)C(C)C [Example 5ah] (Ac-[dW]VPD-aldehyde) |
| 0.01 to 1 | COc1ccc(CCC(=O)N[C@H](C(=O)N2CCC[C@H]2C(=O)N[C@H](C=O)CC(=O)O)C(C)C)cc1OC [Example 5o] |
| 0.01 to 1 | CC(C)[C@H](NC(=O)C(c1ccc(Cl)cc1)c1ccc(Cl)cc1)C(=O)N1CCC[C@H]1C(=O)N[C@H](C=O)CC(=O)O [Example 5p] |
| 0.01 to 1 | CC(C)[C@H](NC(=O)C(c1ccccc1)c1ccccc1)C(=O)N1CCC[C@H]1C(=O)N[C@H](C=O)CC(=O)O [Example 5q] |
| > 1 | CC(C)[C@H](NC(=O)C1(c2ccccc2)CCCC1)C(=O)N1CCC[C@H]1C(=O)N[C@H](C=O)CC(=O)O [Example 5t] |

Same assay, conditions: substrate Suc-YVAD-pNA 80 μM, 37° C., pH 7.5

| Ki [µM] | Structure (SMILES) |
| --- | --- |
| > 1 | COc1ccc(C(=O)NC(C(=O)N2N=C(C(C)(C)C)SC2C(=O)NC(C=O)CC(=O)O)C(C)C)cc1 (single isomer, unassigned) [Example 46a, 3-({5-tert-butyl-3-[2-(4-methoxy-benzoylamino)-3-methyl-butyryl]-2,3-dihydro-[1,3,4]thiadiazole-2-carbonyl)-amino)-4-oxo-butyric acid] |
| 0.01 to 1 | Cc1onc(-c2c(F)cccc2Cl)c1C(=O)N[C@H](C(=O)N1CCC[C@H]1C(=O)N[C@H](C=O)CC(=O)O)C(C)C [Example 5ae] |
| 0.01 to 1 | CC(=O)N[C@H](Cc1c[nH]c2ccccc12)C(=O)N[C@H](C(=O)N1CCC[C@H]1C(=O)N[C@H](C=O)CC(=O)O)C(C)C [Example 5ah] (Ac-[dW]VPD-aldehyde) |
| 0.01 to 1 | CC(C)[C@H](NC(=O)Cc1ccc(Cl)c(Cl)c1)C(=O)N1CCC[C@H]1C(=O)N[C@H](C=O)CC(=O)O [Example 5an] |
| 0.01 to 1 | Cc1ccn2c(=O)c(C(=O)N[C@H](C(=O)N3CCC[C@H]3C(=O)N[C@H](C=O)CC(=O)O)C(C)C)cnc2c1 [Example 5ap] |
| 0.01 to 1 | CC(C)[C@H](NC(=O)c1c(-c2ccccc2)nnc2ccccc12)C(=O)N1CCC[C@H]1C(=O)N[C@H](C=O)CC(=O)O [Example 5bc] |
| 0.01 to 1 | COc1ccc(CCC(=O)N[C@H](C(=O)N2CCC[C@H]2C(=O)N[C@H](C=O)CC(=O)O)C(C)C)cc1OC [Example 5o] |
| 0.01 to 1 | CC(C)[C@H](NC(=O)C(c1ccc(Cl)cc1)c1ccc(Cl)cc1)C(=O)N1CCC[C@H]1C(=O)N[C@H](C=O)CC(=O)O [Example 5p] |
| 0.01 to 1 | CC(C)[C@H](NC(=O)C(c1ccccc1)c1ccccc1)C(=O)N1CCC[C@H]1C(=O)N[C@H](C=O)CC(=O)O [Example 5q] |
| > 1 | CC(C)[C@H](NC(=O)C1(c2ccccc2)CCCC1)C(=O)N1CCC[C@H]1C(=O)N[C@H](C=O)CC(=O)O [Example 5t] |
| 0.01 to 1 | C[C@H](NS(=O)(=O)c1ccccc1)C(=O)N1CCC[C@H]1C(=O)N[C@H](C=O)CC(=O)O [Example 7ae] |
| 0.01 to 1 | C[C@H](NC(=O)Nc1ccccc1)C(=O)N1CCC[C@H]1C(=O)N[C@H](C=O)CC(=O)O [Example 7af] ({NHPh-CO}-Ala-Pro-Asp-aldehyde) |
| 0.01 to 1 | C[C@H](NC(=O)c1ccc(F)c(F)c1)C(=O)N1CCC[C@H]1C(=O)N[C@H](C=O)CC(=O)O [Example 7al] |
| 0.01 to 1 | C[C@H](NC(=O)c1ccc(N)cc1)C(=O)N1CCC[C@H]1C(=O)N[C@H](C=O)CC(=O)O [Example 7aq] (H-[4Abz]APD-aldehyde) |
| 0.01 to 1 | C[C@H](NC(=O)c1ccc(OC(F)(F)F)cc1)C(=O)N1CCC[C@H]1C(=O)N[C@H](C=O)CC(=O)O [Example 7i] |
| > 1 | CC(=O)N(C)c1ccc(C(=O)N[C@@H](C)C(=O)N2CCC[C@H]2C(=O)N[C@H](C=O)CC(=O)O)cc1 [Example 7j] |
| 0.01 to 1 | Cc1nc(C)c(C(=O)N[C@@H](C)C(=O)N2CCC[C@H]2C(=O)N[C@H](C=O)CC(=O)O)s1 [Example 7r] |

| Ki [µM] | Structure (SMILES) |
| --- | --- |
| 0.01 to 1 | CC(C)[C@H](NC(=O)c1ccc(N)c(Cl)c1)C(=O)N1CCN(C)C[C@H]1C(=O)N[C@H](C=O)CC(=O)O [Example 17a] |
| 0.01 to 1 | C[C@H](NC(=O)C(=O)c1ccccc1)C(=O)N1CC(F)(F)C[C@H]1C(=O)N[C@H](C=O)CC(=O)O [Example 27c] |
| 0.01 to 1 | Cc1cc(C(=O)N[C@@H](C)C(=O)N2CC(F)(F)C[C@H]2C(=O)N[C@H](C=O)CC(=O)O)cc(C)c1O [Example 27j] |
| 0.01 to 1 | CC(=O)Nc1c(Cl)cc(C(=O)N[C@@H](C)C(=O)N2CC(F)(F)C[C@H]2C(=O)N[C@H](C=O)CC(=O)O)cc1Cl [Example 27k] |
| < 0.01 | CC(C)[C@H](NC(=O)c1cccc2ccccc12)C(=O)N[C@@H](C)C(=O)N[C@H](C=O)CC(=O)O [Example 29f] |
| > 1 | CC(C)C[C@@H](C(=O)N[C@H](C=O)CC(=O)O)N1CC[C@@H](NC(=O)c2nccc3ccccc23)C1=O [Example 32a] |
| > 1 | Cc1cc(C(=O)N[C@@H]2CCN([C@@H](CC(C)C)C(=O)N[C@H](C=O)CC(=O)O)C2=O)cc(C)c1O [Example 32b] |
| > 1 | CC(C)C[C@@H](C(=O)N[C@H](C=O)CC(=O)O)N1CC[C@@H](NC(=O)c2ccc3[nH]nnc3c2)C1=O [Example 32c] |
| 0.01 to 1 | CC(C)C[C@@H](C(=O)N[C@H](C=O)CC(=O)O)N1CC[C@@H](NC(=O)c2c(Cl)cccc2Cl)C1=O [Example 32e] |
| > 1 | CC(Nc1ccccc1)C(=O)N1CCCC1C(=O)NC(C=O)CC(=O)O (stereo not drawn) [Example 121, 4-Oxo-3-{[1-(2-phenylamino-propionyl)-pyrrolidine-2-carbonyl]-amino}-butyric acid] |
| 0.01 to 1 | C[C@H](NC(=O)c1cc(F)c(N(C)C)c(F)c1)C(=O)N1CCC[C@H]1C(=O)N[C@H](C=O)CC(=O)O [Example 122n, 3-({1-[2-(4-Dimethylamino-3,5-difluoro-benzoylamino)-propionyl]-pyrrolidine-2-carbonyl}-amino)-4-oxo-butyric acid] |
| > 1 | C[C@H](NC(=O)c1ccc(N)c(Cl)c1)C(=O)N1CCC[C@@H]1C(=O)N[C@H](C=O)CC(=O)O [Example 122o, 3-({1-[2-(4-Amino-3-chloro-benzoylamino)-propionyl]-pyrrolidine-2-carbonyl}-amino)-4-oxo-butyric acid] |
| 0.01 to 1 | CCC(=O)Nc1ccc(C(=O)N[C@@H](C)C(=O)N2CCC[C@H]2C(=O)N[C@H](C=O)CC(=O)O)cc1Cl [Example 122t, 3-({1-[2-(3-Chloro-4-propionylamino-benzoylamino)-propionyl]-pyrrolidine-2-carbonyl}-amino)-4-oxo-butyric acid] |
| < 0.01 | C[C@H](NC(=O)c1ccc(NC(=O)Cc2ccccc2)c(Cl)c1)C(=O)N1CCC[C@H]1C(=O)N[C@H](C=O)CC(=O)O [Example 122u, 3-({1-[2-(3-Chloro-4-phenylacetylamino-benzoylamino)-propionyl]-pyrrolidine-2-carbonyl}-amino)-4-oxo-butyric acid] |
| 0.01 to 1 | CC(C)CC(=O)Nc1ccc(C(=O)N[C@@H](C)C(=O)N2CCC[C@H]2C(=O)N[C@H](C=O)CC(=O)O)cc1Cl [Example 122v, 3-[(1-{2-[3-Chloro-4-(3-methyl-butyrylamino)-benzoylamino]-propionyl}-pyrrolidine-2-carbonyl}-amino]-4-oxo-butyric acid] |
| 0.01 to 1 | COc1c(C(=O)NC(C)C(=O)N2CC(F)(F)CC2C(=O)NC(C=O)CC(=O)O)ccc(NC(C)=O)c1Cl (stereo not drawn) [Example 123c, 3-({1-[2-(4-Acetylamino-3-chloro-2-methoxy-benzoylamino)-propionyl]-4,4-difluoro-pyrrolidine-2-carbonyl)-amino)-4-oxo-butyric acid] |
| > 1 | Nc1ccc(C(=O)NCC(=O)N2CCC[C@H]2C(=O)N[C@H](C=O)CC(=O)O)cc1Cl [Example G1, 3-({1-[(4-Amino-3-chloro-benzoylamino)-acetyl]-pyrrolidine-2-carbonyl}-amino)-4-oxo-butyric acid] |

| Structure (SMILES) | Ki [µM] |
| --- | --- |
| C[C@H](NC(=O)Oc1ccccc1)C(=O)N1CCC[C@H]1C(=O)N[C@H](C=O)CC(=O)O [Example 7ag] | 0.01 to 1 |
| CN(NC(=O)N1CCCC1C(=O)NC(C=O)CC(=O)O)C(=O)c1nccc2ccccc12 (stereo not drawn) [Example 34, 3-({1-[N-(isoquinoline-1-carbonyl)-N-methyl-hydrazinocarbonyl]-pyrrolidine-2-carbonyl}-amino)-4-oxo-butyric acid] | > 1 |
